Data reported in publication PMC10649086 (Antimicrobial Agents and Chemotherapy, 2023).

Key:
SARS-CoV-2 M^pro G15S [1] = biological target: T1, SARS-CoV-2 M^pro G15S (Severe acute respiratory syndrome coronavirus 2, UniProt P0DTC1, G3278S); details: cited from earlier work
SARS-CoV-2 M^pro T135I [2] = biological target: T2, SARS-CoV-2 M^pro T135I (Severe acute respiratory syndrome coronavirus 2, UniProt P0DTC1, T3398I); details: cited from earlier work
SARS-CoV-2 M^pro H164N [3] = biological target: T3, SARS-CoV-2 M^pro H164N (Severe acute respiratory syndrome coronavirus 2, UniProt P0DTC1, H3427N); details: cited from earlier work
SARS-CoV-2 M^pro D248E [4] = biological target: T4, SARS-CoV-2 M^pro D248E (Severe acute respiratory syndrome coronavirus 2, UniProt P0DTC1, D3511E); details: cited from earlier work
SARS-CoV-2 M^pro P132H = details: cited from earlier work
[5] = system: SARS-CoV-2 D614G B.1 (ancestral); assay type: cell-based
[6] = system: SARS-CoV-2-EGFP replicon E166A; assay type: cell-based
[7] = system: SARS-CoV-2-EGFP replicon L167F; assay type: cell-based
[8] = system: SARS-CoV-2-EGFP replicon L50F; assay type: cell-based
[9] = system: SARS-CoV-2-EGFP replicon L50F + E166A; assay type: cell-based
[10] = system: SARS-CoV-2-EGFP replicon L50F + E166A + L167F; assay type: cell-based
[11] = system: SARS-CoV-2-EGFP replicon S144A; assay type: cell-based
[12] = system: SARS-CoV-2-EGFP replicon T21I; assay type: cell-based
[13] = system: SARS-CoV-2-EGFP replicon T21I + L50F; assay type: cell-based
[14] = biological target: SARS-CoV-2 M^pro A173V + T304I (Severe acute respiratory syndrome coronavirus 2, UniProt P0DTC1, A3436V/T3567I); assay type: biochemical
SARS-CoV-2 M^pro A260V = SARS-CoV-2 M^pro A260V (Severe acute respiratory syndrome coronavirus 2, UniProt P0DTC1, A3523V); assay type: biochemical
SARS-CoV-2 M^pro D248E [15] = biological target: T4, SARS-CoV-2 M^pro D248E; assay type: biochemical
SARS-CoV-2 M^pro E166A = SARS-CoV-2 M^pro E166A (Severe acute respiratory syndrome coronavirus 2, UniProt P0DTC1, E3429A); assay type: biochemical
SARS-CoV-2 M^pro E166V = SARS-CoV-2 M^pro E166V (Severe acute respiratory syndrome coronavirus 2, UniProt P0DTC1, E3429V); assay type: biochemical
SARS-CoV-2 M^pro G15S [16] = biological target: T1, SARS-CoV-2 M^pro G15S; assay type: biochemical
SARS-CoV-2 M^pro H164N [17] = biological target: T3, SARS-CoV-2 M^pro H164N; assay type: biochemical
SARS-CoV-2 M^pro H172Y = SARS-CoV-2 M^pro H172Y (Severe acute respiratory syndrome coronavirus 2, UniProt P0DTC1, H3435Y); assay type: biochemical
[18] = biological target: SARS-CoV-2 M^pro H172Y + P252L (Severe acute respiratory syndrome coronavirus 2, UniProt P0DTC1, H3435Y/P3515L); assay type: biochemical
SARS-CoV-2 M^pro K90R = SARS-CoV-2 M^pro K90R (Severe acute respiratory syndrome coronavirus 2, UniProt P0DTC1, K3353R); assay type: biochemical
SARS-CoV-2 M^pro L50F = SARS-CoV-2 M^pro L50F (Severe acute respiratory syndrome coronavirus 2, UniProt P0DTC1, L3313F); assay type: biochemical
[19] = biological target: SARS-CoV-2 M^pro L50F + A173V (Severe acute respiratory syndrome coronavirus 2, UniProt P0DTC1, A3436V/L3313F); assay type: biochemical
[20] = biological target: SARS-CoV-2 M^pro L50F + E166A (Severe acute respiratory syndrome coronavirus 2, UniProt P0DTC1, E3429A/L3313F); assay type: biochemical
[21] = biological target: SARS-CoV-2 M^pro L50F + E166A + L167F (Severe acute respiratory syndrome coronavirus 2, UniProt P0DTC1, E3429A/L3313F/L3430F); assay type: biochemical
[22] = biological target: SARS-CoV-2 M^pro L50F + E166V (Severe acute respiratory syndrome coronavirus 2, UniProt P0DTC1, E3429V/L3313F); assay type: biochemical
[23] = biological target: SARS-CoV-2 M^pro L50F + F140L + L167F + T304I (Severe acute respiratory syndrome coronavirus 2, UniProt P0DTC1, F3403L/L3313F/L3430F/T3567I); assay type: biochemical
[24] = biological target: SARS-CoV-2 M^pro L50F + T304I (Severe acute respiratory syndrome coronavirus 2, UniProt P0DTC1, L3313F/T3567I); assay type: biochemical
SARS-CoV-2 M^pro Q189K = SARS-CoV-2 M^pro Q189K (Severe acute respiratory syndrome coronavirus 2, UniProt P0DTC1, Q3452K); assay type: biochemical
SARS-CoV-2 M^pro S144A = SARS-CoV-2 M^pro S144A (Severe acute respiratory syndrome coronavirus 2, UniProt P0DTC1, S3407A); assay type: biochemical
SARS-CoV-2 M^pro T135I [25] = biological target: T2, SARS-CoV-2 M^pro T135I; assay type: biochemical
[26] = biological target: SARS-CoV-2 M^pro T135I + T304I (Severe acute respiratory syndrome coronavirus 2, UniProt P0DTC1, T3398I/T3567I); assay type: biochemical
SARS-CoV-2 M^pro T21I = SARS-CoV-2 M^pro T21I (Severe acute respiratory syndrome coronavirus 2, UniProt P0DTC1, T3284I); assay type: biochemical
[27] = biological target: SARS-CoV-2 M^pro T21I + A173V (Severe acute respiratory syndrome coronavirus 2, UniProt P0DTC1, A3436V/T3284I); assay type: biochemical
[28] = biological target: SARS-CoV-2 M^pro T21I + A173V + T304I (Severe acute respiratory syndrome coronavirus 2, UniProt P0DTC1, A3436V/T3284I/T3567I); assay type: biochemical
[29] = biological target: SARS-CoV-2 M^pro T21I + C160F + A173V+ V186A + T304I (Severe acute respiratory syndrome coronavirus 2, UniProt P0DTC1, A3436V/C3423F/T3284I/T3567I/V3449A); assay type: biochemical
[30] = biological target: SARS-CoV-2 M^pro T21I + E166V (Severe acute respiratory syndrome coronavirus 2, UniProt P0DTC1, E3429V/T3284I); assay type: biochemical
[31] = biological target: SARS-CoV-2 M^pro T21I + L50F (Severe acute respiratory syndrome coronavirus 2, UniProt P0DTC1, L3313F/T3284I); assay type: biochemical
[32] = biological target: SARS-CoV-2 M^pro T21I + L50F + A193P + S301P (Severe acute respiratory syndrome coronavirus 2, UniProt P0DTC1, A3456P/L3313F/S3564P/T3284I); assay type: biochemical
[33] = biological target: SARS-CoV-2 M^pro T21I + S144A (Severe acute respiratory syndrome coronavirus 2, UniProt P0DTC1, S3407A/T3284I); assay type: biochemical
[34] = biological target: SARS-CoV-2 M^pro T21I + S144A + T304I (Severe acute respiratory syndrome coronavirus 2, UniProt P0DTC1, S3407A/T3284I/T3567I); assay type: biochemical
[35] = biological target: SARS-CoV-2 M^pro T21I + T304I (Severe acute respiratory syndrome coronavirus 2, UniProt P0DTC1, T3284I/T3567I); assay type: biochemical

For `CC(C)(C)[C@H](NC(=O)C(F)(F)F)C(=O)N1C[C@H]2[C@@H]([C@H]1C(=O)N[C@H](C#N)C[C@@H]1CCNC1=O)C2(C)C` [nirmatrelvir], the “resistance in the Mpro assay” value (SARS-CoV-2 M^pro G15S [1]) is given as “~fourfold”, the “resistance in the Mpro assay” value (SARS-CoV-2 M^pro T135I [2]) is given as “~fourfold” and the “resistance in the Mpro assay” value (SARS-CoV-2 M^pro H164N [3]) is given as “~fourfold”. For the same compound, the “resistance in the Mpro assay” value (SARS-CoV-2 M^pro D248E [4]) was “~fourfold” and the “effect of P132H variant on inhibition” value (SARS-CoV-2 M^pro P132H) was “no effect”.

`N#C[C@H](C[C@@H]1CCCNC1=O)NC(=O)[C@H](CC1CC1)NC(=O)c1cc2cccc(Cl)c2[nH]1` [pomotrelvir] showed an EC50 ([5]; read-out: EC50 Mean (SD)) of 151 nM, an EC90 ([5]; read-out: EC90 Mean (SD)) of 547 nM and an EC50 ([6]; read-out: EC50 Mean (SD)) of 110 nM. For the same compound, the EC90 ([6]; read-out: EC90 Mean (SD)) was 710 nM, the EC50 ([7]; read-out: EC50 Mean (SD)) was 56 nM and the EC90 ([7]; read-out: EC90 Mean (SD)) was 510 nM. For the same compound, the EC50 ([8]; read-out: EC50 Mean (SD)) was 14 nM, the EC90 ([8]; read-out: EC90 Mean (SD)) was 150 nM and the EC50 ([9]; read-out: EC50 Mean (SD)) was 410 nM. It also gave an EC90 ([9]; read-out: EC90 Mean (SD)) of 1800 nM, an EC50 ([10]; read-out: EC50 Mean (SD)) of 1400 nM and an EC90 ([10]; read-out: EC90 Mean (SD)) of 8300 nM. For the same compound, the EC50 ([11]; read-out: EC50 Mean (SD)) was 92 nM, the EC90 ([11]; read-out: EC90 Mean (SD)) was 560 nM and the EC50 ([12]; read-out: EC50 Mean (SD)) was 33 nM. The EC90 ([12]; read-out: EC90 Mean (SD)) was 270 nM, the EC50 ([13]; read-out: EC50 Mean (SD)) was 110 nM and the EC90 ([13]; read-out: EC90 Mean (SD)) was 780 nM.

In the case of GC376, the IC50 [14] is reported as 100 nM, the IC50 (SARS-CoV-2 M^pro A260V) is reported as 20 nM and the IC50 (SARS-CoV-2 M^pro D248E [15]) is reported as 30 nM. The IC50 (SARS-CoV-2 M^pro E166A) was 320 nM, the IC50 (SARS-CoV-2 M^pro E166V) was 660 nM and the IC50 (SARS-CoV-2 M^pro G15S [16]) was 20 nM. For the same compound, the IC50 (SARS-CoV-2 M^pro H164N [17]) was 80 nM, the IC50 (SARS-CoV-2 M^pro H172Y) was 410 nM and the IC50 [18] was 280 nM. It also gave an IC50 (SARS-CoV-2 M^pro K90R) of 10 nM, an IC50 (SARS-CoV-2 M^pro L50F) of 20 nM and an IC50 [19] of 60 nM. It also gave an IC50 [20] of 270 nM, an IC50 [21] of 760 nM and an IC50 [22] of 430 nM. It also gave an IC50 [23] of 170 nM, an IC50 [24] of 60 nM and an IC50 (SARS-CoV-2 M^pro Q189K) of 50 nM. For the same compound, the IC50 (SARS-CoV-2 M^pro S144A) was 120 nM, the IC50 (SARS-CoV-2 M^pro T135I [25]) was 20 nM and the IC50 [26] was 70 nM. It also gave an IC50 (SARS-CoV-2 M^pro T21I) of 20 nM, an IC50 [27] of 80 nM and an IC50 [28] of 90 nM. For the same compound, the IC50 [29] was 90 nM, the IC50 [30] was 590 nM and the IC50 [31] was 20 nM. The IC50 [32] was 70 nM, the IC50 [33] was 120 nM and the IC50 [34] was 190 nM. The IC50 [35] was 50 nM.
